# Measured values: patent US8959984B2, “Proteome-wide quantification of small molecule binding to cellular target proteins” (priority 2007, dated 2015)
# Experiments:
# Test in all cases: binding to VI16742 beads (HeLa lysate, SILAC MS)
# BUB1 (IPI00783305) = biological target: T1, BUB1 (IPI00783305) (Homo sapiens, UniProt O43683)
# T1 construct: endogenous in cells; host or cells: HeLa S3
# Procedure, shortened: (§1)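 A broadly selective pyrido[2,3-d]pyrimidine kinase inhibitor was coupled to resin and used as an affinity bait for chemical proteomic profiling.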
# DPH5 (IPI00375824) = biological target: T2, DPH5 (IPI00375824) (Homo sapiens, UniProt Q9H2P9)
# T2 construct: endogenous in cells; host or cells: HeLa S3
# T2 sequence (Q9H2P9 1-285): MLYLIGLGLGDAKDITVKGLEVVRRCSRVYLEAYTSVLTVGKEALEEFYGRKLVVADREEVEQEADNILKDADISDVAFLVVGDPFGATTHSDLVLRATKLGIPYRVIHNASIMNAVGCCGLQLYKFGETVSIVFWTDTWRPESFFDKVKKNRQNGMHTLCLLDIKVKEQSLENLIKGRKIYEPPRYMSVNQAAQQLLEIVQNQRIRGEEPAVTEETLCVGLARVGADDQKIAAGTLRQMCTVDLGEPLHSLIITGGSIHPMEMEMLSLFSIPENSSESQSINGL
# Procedure, shortened: as §1
# GLO1 (IPI00220766) = biological target: T3, GLO1 (IPI00220766) (Homo sapiens, UniProt Q04760)
# T3 construct: endogenous in cells; host or cells: HeLa S3
# T3 sequence (Q04760 2-184 limits assumed): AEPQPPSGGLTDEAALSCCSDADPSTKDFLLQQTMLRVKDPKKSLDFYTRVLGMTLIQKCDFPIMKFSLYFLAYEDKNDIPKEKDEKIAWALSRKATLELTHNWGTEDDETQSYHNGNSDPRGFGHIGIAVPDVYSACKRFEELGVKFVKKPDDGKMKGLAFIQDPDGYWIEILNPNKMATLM
# Procedure, shortened: as §1
# CDK4 (IPI00007811) = biological target: T4, CDK4 (IPI00007811) (Homo sapiens, UniProt P11802)
# T4 construct: endogenous in cells; host or cells: HeLa S3
# T4 sequence (P11802 whole entry): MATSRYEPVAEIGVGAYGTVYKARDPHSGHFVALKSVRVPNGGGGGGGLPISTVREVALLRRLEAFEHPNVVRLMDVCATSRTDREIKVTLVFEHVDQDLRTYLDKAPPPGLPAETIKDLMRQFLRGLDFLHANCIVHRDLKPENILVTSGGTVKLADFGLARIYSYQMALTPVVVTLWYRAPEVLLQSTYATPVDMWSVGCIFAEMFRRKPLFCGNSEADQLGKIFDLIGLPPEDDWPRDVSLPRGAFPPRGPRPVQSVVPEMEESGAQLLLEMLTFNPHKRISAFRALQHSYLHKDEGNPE
# Procedure, shortened: as §1
# PDE4D (IPI00002449) = biological target: T5, PDE4D (IPI00002449) (Homo sapiens, UniProt Q08499)
# T5 construct: endogenous in cells; host or cells: HeLa S3 cell lysate
# T5 sequence (Q08499 whole entry): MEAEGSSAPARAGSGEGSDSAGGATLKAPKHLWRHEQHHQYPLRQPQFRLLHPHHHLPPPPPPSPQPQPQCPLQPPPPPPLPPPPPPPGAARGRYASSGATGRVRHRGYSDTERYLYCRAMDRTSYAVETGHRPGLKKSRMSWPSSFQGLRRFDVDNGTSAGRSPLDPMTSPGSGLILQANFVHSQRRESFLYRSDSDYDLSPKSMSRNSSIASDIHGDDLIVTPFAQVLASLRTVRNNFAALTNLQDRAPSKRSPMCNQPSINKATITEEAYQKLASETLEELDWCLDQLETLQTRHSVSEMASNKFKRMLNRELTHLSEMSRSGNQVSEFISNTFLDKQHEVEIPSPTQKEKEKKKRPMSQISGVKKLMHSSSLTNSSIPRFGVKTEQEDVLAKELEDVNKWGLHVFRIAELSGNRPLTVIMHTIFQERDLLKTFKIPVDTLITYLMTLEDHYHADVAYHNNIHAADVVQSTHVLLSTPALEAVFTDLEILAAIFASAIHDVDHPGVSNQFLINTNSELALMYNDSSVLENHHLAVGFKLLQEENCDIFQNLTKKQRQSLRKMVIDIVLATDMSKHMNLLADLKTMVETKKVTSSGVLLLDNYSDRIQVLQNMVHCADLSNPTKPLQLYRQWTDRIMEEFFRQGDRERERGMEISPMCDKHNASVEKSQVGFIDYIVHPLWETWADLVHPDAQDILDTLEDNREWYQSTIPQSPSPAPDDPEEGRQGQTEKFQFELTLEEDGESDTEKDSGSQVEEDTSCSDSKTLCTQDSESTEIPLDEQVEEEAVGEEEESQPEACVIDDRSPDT
# Procedure, shortened: as §1
# ACLY (IPI00021290) = biological target: T6, ACLY (IPI00021290) (Homo sapiens, UniProt P53396)
# T6 construct: endogenous in cells; host or cells: HeLa S3
# T6 sequence (P53396 1-1101): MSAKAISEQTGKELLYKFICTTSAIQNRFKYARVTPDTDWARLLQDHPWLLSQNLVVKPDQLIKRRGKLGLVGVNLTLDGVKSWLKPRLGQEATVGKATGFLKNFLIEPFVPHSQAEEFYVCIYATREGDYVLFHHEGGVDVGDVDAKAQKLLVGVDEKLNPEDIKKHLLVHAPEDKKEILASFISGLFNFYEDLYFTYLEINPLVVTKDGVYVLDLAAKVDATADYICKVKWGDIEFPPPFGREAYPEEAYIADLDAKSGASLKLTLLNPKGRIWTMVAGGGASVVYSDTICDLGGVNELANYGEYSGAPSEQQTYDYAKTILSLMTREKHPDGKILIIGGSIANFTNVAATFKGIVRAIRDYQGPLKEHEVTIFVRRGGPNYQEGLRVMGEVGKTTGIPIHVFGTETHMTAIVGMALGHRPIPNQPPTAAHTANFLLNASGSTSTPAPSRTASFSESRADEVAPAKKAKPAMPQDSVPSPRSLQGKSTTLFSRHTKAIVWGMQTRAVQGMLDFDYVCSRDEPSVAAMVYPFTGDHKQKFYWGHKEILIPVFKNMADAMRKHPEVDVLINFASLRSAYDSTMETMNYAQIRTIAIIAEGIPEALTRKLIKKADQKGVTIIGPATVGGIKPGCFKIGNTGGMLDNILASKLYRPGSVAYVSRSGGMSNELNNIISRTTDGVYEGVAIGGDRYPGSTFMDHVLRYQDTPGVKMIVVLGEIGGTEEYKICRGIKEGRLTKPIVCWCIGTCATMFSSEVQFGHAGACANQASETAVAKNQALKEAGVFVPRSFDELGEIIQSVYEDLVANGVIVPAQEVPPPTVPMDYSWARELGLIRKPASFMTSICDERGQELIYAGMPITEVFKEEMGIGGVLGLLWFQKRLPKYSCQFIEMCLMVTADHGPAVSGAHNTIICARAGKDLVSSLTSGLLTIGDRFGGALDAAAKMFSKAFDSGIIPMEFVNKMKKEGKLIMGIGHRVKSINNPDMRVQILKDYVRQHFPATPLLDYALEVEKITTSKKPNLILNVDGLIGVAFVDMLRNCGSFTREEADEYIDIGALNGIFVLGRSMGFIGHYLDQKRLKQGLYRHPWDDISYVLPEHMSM
# Procedure, shortened: as §1
# [1] = biological target: T7, MSK1 (RPS6KA5, IPI00335101) (Homo sapiens, UniProt O75582)
# T7 construct: endogenous in cells; host or cells: HeLa S3
# T7 sequence (O75582 whole entry): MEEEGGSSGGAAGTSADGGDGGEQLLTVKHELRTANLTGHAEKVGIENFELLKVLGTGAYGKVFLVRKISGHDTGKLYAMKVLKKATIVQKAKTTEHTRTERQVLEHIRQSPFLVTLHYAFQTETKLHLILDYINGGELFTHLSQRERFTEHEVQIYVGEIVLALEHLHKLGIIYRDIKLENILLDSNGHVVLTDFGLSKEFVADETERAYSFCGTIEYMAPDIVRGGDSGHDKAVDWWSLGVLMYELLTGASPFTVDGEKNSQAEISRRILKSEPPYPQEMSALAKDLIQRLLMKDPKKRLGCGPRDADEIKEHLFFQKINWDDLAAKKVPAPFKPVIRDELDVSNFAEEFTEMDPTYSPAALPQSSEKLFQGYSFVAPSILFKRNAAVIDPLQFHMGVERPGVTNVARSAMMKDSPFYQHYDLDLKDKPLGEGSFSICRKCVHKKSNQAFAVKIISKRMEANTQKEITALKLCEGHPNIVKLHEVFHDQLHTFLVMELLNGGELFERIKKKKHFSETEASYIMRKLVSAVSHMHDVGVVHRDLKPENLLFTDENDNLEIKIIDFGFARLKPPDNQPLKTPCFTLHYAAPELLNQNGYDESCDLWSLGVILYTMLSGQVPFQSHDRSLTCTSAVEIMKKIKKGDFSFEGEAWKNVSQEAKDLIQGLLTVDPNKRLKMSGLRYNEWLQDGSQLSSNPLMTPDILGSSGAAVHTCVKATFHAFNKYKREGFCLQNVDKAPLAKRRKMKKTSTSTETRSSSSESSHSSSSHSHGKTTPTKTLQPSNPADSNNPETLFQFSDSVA
# Procedure, shortened: as §1
# MAP2K1 (IPI00219604) = biological target: T8, MAP2K1 (IPI00219604) (Homo sapiens, UniProt Q02750)
# T8 construct: endogenous in cells; host or cells: HeLa S3
# T8 sequence (Q02750 whole entry): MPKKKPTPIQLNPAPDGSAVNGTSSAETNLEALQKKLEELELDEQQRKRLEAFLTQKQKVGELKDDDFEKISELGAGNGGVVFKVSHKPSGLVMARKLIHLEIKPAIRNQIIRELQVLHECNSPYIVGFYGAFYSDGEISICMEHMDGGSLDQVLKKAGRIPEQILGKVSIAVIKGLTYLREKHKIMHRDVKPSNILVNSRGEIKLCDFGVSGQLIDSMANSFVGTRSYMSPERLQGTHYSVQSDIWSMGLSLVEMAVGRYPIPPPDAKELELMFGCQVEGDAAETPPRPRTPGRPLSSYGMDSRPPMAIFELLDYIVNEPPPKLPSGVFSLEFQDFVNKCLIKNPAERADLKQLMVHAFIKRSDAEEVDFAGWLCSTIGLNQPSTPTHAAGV
# Procedure, shortened: as §1
# AGL (IPI00328318) = biological target: T9, AGL (IPI00328318) (Homo sapiens, UniProt P35573)
# T9 construct: endogenous in cells; host or cells: HeLa S3
# T9 sequence (P35573 whole entry): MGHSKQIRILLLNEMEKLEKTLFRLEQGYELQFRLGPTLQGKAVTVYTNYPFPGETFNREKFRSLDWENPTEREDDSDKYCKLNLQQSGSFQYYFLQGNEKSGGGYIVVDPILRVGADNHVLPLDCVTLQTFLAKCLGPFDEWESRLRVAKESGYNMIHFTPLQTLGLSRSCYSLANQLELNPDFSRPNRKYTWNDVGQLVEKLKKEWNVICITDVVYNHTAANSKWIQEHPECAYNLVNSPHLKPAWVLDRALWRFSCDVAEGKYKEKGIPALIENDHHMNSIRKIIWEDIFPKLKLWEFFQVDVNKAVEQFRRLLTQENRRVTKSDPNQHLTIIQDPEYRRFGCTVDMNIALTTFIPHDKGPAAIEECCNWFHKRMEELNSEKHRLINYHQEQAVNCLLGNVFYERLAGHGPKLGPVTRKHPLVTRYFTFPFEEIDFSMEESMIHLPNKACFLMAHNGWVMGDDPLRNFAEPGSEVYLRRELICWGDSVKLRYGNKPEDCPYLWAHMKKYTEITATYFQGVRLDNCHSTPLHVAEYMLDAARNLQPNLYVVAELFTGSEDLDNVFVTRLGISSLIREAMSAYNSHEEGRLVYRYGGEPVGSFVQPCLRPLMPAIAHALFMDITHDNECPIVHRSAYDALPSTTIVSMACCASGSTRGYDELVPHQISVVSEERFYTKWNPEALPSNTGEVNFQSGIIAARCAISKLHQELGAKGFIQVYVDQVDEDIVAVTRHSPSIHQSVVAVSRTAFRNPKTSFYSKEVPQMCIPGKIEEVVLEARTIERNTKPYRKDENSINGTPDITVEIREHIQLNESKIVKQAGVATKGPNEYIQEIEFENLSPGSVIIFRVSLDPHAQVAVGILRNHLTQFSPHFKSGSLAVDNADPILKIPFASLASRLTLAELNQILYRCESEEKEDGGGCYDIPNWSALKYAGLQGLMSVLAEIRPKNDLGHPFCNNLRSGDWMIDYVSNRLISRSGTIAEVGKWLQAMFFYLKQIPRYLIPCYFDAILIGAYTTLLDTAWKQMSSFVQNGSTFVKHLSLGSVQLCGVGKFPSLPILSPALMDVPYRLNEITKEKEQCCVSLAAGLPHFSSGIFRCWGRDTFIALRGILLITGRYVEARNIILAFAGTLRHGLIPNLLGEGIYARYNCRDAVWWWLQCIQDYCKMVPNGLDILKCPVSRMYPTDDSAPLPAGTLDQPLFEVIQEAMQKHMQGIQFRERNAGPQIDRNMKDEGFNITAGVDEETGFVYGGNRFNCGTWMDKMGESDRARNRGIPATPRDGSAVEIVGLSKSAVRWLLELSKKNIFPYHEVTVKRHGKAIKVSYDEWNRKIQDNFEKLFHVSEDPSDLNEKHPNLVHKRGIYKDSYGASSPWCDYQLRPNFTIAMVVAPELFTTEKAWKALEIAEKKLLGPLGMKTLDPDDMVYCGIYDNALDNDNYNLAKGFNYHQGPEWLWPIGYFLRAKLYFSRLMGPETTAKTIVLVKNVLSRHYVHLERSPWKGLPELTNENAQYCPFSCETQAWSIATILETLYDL
# Procedure, shortened: as §1
# [2] = control beads vs first incubation
# T1 sequence (O43683 whole entry): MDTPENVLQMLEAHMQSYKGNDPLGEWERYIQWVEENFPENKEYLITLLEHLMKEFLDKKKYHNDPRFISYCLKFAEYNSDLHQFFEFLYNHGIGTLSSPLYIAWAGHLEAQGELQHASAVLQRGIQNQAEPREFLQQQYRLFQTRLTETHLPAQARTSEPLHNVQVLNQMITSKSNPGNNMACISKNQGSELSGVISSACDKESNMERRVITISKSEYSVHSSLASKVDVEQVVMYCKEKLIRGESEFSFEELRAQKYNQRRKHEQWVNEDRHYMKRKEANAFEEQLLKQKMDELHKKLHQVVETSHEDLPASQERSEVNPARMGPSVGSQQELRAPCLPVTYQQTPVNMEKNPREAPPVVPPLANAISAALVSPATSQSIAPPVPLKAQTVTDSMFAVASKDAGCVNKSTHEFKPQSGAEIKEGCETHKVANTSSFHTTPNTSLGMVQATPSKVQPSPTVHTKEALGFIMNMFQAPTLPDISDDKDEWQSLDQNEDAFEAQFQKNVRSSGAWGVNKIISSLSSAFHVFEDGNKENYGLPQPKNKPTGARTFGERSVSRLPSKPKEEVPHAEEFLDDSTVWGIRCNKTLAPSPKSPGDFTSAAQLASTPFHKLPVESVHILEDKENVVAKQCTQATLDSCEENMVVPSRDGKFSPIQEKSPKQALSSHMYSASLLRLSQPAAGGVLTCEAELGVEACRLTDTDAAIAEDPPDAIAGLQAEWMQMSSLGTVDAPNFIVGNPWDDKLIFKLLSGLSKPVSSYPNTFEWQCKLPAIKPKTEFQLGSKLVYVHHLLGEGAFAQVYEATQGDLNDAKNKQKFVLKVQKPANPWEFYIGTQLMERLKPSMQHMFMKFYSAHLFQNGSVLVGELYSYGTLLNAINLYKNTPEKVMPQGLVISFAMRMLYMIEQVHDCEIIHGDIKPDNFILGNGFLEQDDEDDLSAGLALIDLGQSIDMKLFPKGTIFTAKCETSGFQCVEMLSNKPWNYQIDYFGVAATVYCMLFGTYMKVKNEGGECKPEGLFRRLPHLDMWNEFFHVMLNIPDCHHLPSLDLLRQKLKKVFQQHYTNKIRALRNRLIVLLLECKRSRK
smiles,measurement,setting,value
CC(C)n1c(=O)ccc2cnc(Nc3ccc(OCCN)cc3)nc21 [V16742],rAVERAGE (CTRL/1 INC),BUB1 (IPI00783305); [2],0.05
same,Ki,BUB1 (IPI00783305); immobilized VI16742,161 µM
same,rAVERAGE (2 INC/1 INC),BUB1 (IPI00783305); second vs first incubation,0.76
same,r (5 h/2.5 h INC. TIME),DPH5 (IPI00375824); 5 h vs 2.5 h incubation time,2.72
same,rAVERAGE (CTRL/1 INC),DPH5 (IPI00375824); [2],0.03
same,Ki,DPH5 (IPI00375824); immobilized VI16742,211 µM
same,rAVERAGE (2 INC/1 INC),DPH5 (IPI00375824); second vs first incubation,0.80
same,r (5 h/2.5 h INC. TIME),GLO1 (IPI00220766); 5 h vs 2.5 h incubation time,1.39
same,rAVERAGE (CTRL/1 INC),GLO1 (IPI00220766); [2],0.07
same,Ki,GLO1 (IPI00220766); immobilized VI16742,133 µM
same,rAVERAGE (2 INC/1 INC),GLO1 (IPI00220766); second vs first incubation,0.72
same,r (3 MG/1 MG LYSATE),CDK4 (IPI00007811); 3 mg vs 1 mg lysate,1.77
same,r (5 h/2.5 h INC. TIME),CDK4 (IPI00007811); 5 h vs 2.5 h incubation time,1.03
same,rAVERAGE (CTRL/1 INC),CDK4 (IPI00007811); [2],0.07
same,Ki,CDK4 (IPI00007811); immobilized VI16742,511 µM
same,rAVERAGE (2 INC/1 INC),CDK4 (IPI00007811); second vs first incubation,0.91
same,r (3 MG/1 MG LYSATE),PDE4D (IPI00002449); 3 mg vs 1 mg lysate,2.48
same,r (5 h/2.5 h INC. TIME),PDE4D (IPI00002449); 5 h vs 2.5 h incubation time,1.09
same,rAVERAGE (CTRL/1 INC),PDE4D (IPI00002449); [2],0.05
same,Ki,PDE4D (IPI00002449); immobilized VI16742,102 µM
same,rAVERAGE (2 INC/1 INC),PDE4D (IPI00002449); second vs first incubation,0.66
same,r (3 MG/1 MG LYSATE),ACLY (IPI00021290); 3 mg vs 1 mg lysate,3.59
same,r (5 h/2.5 h INC. TIME),ACLY (IPI00021290); 5 h vs 2.5 h incubation time,1.98
same,rAVERAGE (CTRL/1 INC),ACLY (IPI00021290); [2],0.06
same,Ki,ACLY (IPI00021290); immobilized VI16742,162 µM
same,rAVERAGE (2 INC/1 INC),ACLY (IPI00021290); second vs first incubation,0.76
same,rAVERAGE (CTRL/1 INC),[1]; [2],0.03
same,Ki,[1]; immobilized VI16742,217 µM
same,rAVERAGE (2 INC/1 INC),[1]; second vs first incubation,0.81
same,r (5 h/2.5 h INC. TIME),MAP2K1 (IPI00219604); 5 h vs 2.5 h incubation time,1.68
same,rAVERAGE (CTRL/1 INC),MAP2K1 (IPI00219604); [2],0.07
same,Ki,MAP2K1 (IPI00219604); immobilized VI16742,180 µM
same,rAVERAGE (2 INC/1 INC),MAP2K1 (IPI00219604); second vs first incubation,0.78
same,rAVERAGE (CTRL/1 INC),AGL (IPI00328318); [2],0.08
same,Ki,AGL (IPI00328318); immobilized VI16742,218 µM
same,rAVERAGE (2 INC/1 INC),AGL (IPI00328318); second vs first incubation,0.81
